Laboratory results published in ChEMBL document CHEMBL3351562, “Oxo- and thiooxo-imidazo[1,5-c]pyrimidine molecule library: beyond their interest in inhibition of Brucella suis histidinol dehydrogenase, a powerful protection tool in the synthesis of histidine analogues” (Bioorg Med Chem Lett, 2014).

Assay: Inhibition of Brucella suis histidinol dehydrogenase assessed as NADH released as a by-product preincubated for 5 min at 30 degC by spectrophotometric method

Q: For `N[C@@H](Cc1c[nH]cn1)C(=O)Cc1ccc(F)cc1F`, which IC50 is on record?
A: 0.01 µM

Q: Which IC50 does the source give for `Cc1ccc(CC(=O)[C@@H](N)Cc2c[nH]cn2)cc1` here?
A: 0.015 µM

Q: Which IC50 does the source give for `N[C@@H](Cc1c[nH]cn1)C(=O)Cc1ccc(Br)cc1` here?
A: 0.006 µM

Q: With `N[C@@H](Cc1c[nH]cn1)C(=O)Cc1ccc(-c2ccccc2)cc1` as the compound, how does the IC50 read?
A: 0.012 µM

Q: Which IC50 does the source give for `N[C@@H](Cc1c[nH]cn1)C(=O)Cc1ccc(Cl)cc1` here?
A: 0.012 µM

Q: For `COC(=O)[C@@H]1Cc2cncn2C(=O)N1`, which IC50 is on record?
A: 532 µM

Q: Which IC50 does the source give for `O=C(Cc1ccc(Br)cc1)[C@@H]1Cc2cncn2C(=O)N1` here?
A: 98 µM

Q: Which IC50 does the source give for `O=C(Cc1ccc(Cl)cc1)[C@@H]1Cc2cncn2C(=O)N1` here?
A: 92 µM

Q: Which IC50 does the source give for `Cc1ccc(CC(=O)[C@@H]2Cc3cncn3C(=O)N2)cc1` here?
A: 113 µM

Q: With `O=C(Cc1ccc(F)cc1F)[C@@H]1Cc2cncn2C(=O)N1` as the compound, how does the IC50 read?
A: 143 µM

Q: For `O=C(Cc1ccc(-c2ccccc2)cc1)[C@@H]1Cc2cncn2C(=O)N1`, which IC50 is on record?
A: 86 µM

Q: For `CCCCCc1ccc(C#Cc2ccc(CC(=O)[C@@H]3Cc4cncn4C(=O)N3)cc2)cc1`, which IC50 is on record?
A: 175 µM

Q: Which IC50 does the source give for `COC(=O)[C@@H]1Cc2cncn2C(=S)N1` here?
A: 18 µM

Q: For `O=C(Cc1ccc(Br)cc1)[C@@H]1Cc2cncn2C(=S)N1`, which IC50 is on record?
A: 105 µM

Q: Which IC50 does the source give for `O=C(Cc1ccc(Cl)cc1)[C@@H]1Cc2cncn2C(=S)N1` here?
A: 74 µM

Q: With `Cc1ccc(CC(=O)[C@@H]2Cc3cncn3C(=S)N2)cc1` as the compound, how does the IC50 read?
A: 95 µM

Q: For `O=C(Cc1ccc(F)cc1F)[C@@H]1Cc2cncn2C(=S)N1`, which IC50 is on record?
A: 95 µM

Q: Which IC50 does the source give for `O=C(Cc1ccc(-c2ccccc2)cc1)[C@@H]1Cc2cncn2C(=S)N1` here?
A: 5 µM

Q: With `CCCCCc1ccc(C#Cc2ccc(CC(=O)[C@@H]3Cc4cncn4C(=S)N3)cc2)cc1` as the compound, how does the IC50 read?
A: 322 µM

Q: Which IC50 does the source give for `CCCCCc1ccc(C#Cc2ccc(CC(=O)[C@@H](N)Cc3c[nH]cn3)cc2)cc1` here?
A: 0.009 µM
